Results reported in PMC11684029, “Discovery of VU6024578/BI02982816: An mGlu1 Positive Allosteric Modulator with Efficacy in Preclinical Antipsychotic and Cognition Models” (Journal of Medicinal Chemistry, 2024).

How the values were obtained:
hERG = hERG (Homo sapiens, UniProt Q12809); test: hERG manual patch clamp assay; assay type: cell-based
brain homogenate binding = assay type: in vitro ADME, rat; conditions: fraction unbound
[1] = predicted hepatic clearance; assay type: in vitro ADME, dog
Source text: Across species, 19d had acceptable fraction unbound in both plasma (fu (plasma): 0.03 (human), 0.041 (rat), 0.025 (cyno), 0.039 (dog) and 0.056 (mouse)) and brain (fu (brain): 0.034 (rat) and 0.081 (mouse)).

1A2 = biological target: T1, 1A2 (Homo sapiens, UniProt P05177); test: inhibition of cytochrome P450 enzymes; assay type: in vitro ADME; conditions: human liver microsomes; read-out: CYP450 1A2 inhibition
T1 construct: 0.1 mg/mL human liver microsomes (HLM) and Substrate Mix; from tissue; host or cells: human liver microsomes
Protocol: (§1) A cocktail of substrates for cytochrome P450 enzymes (1A2: Phenacetin, 10 μM; 2C9: Diclofenac, 5 μM; 2D6: Dextromethorphan, 5 μM; 3A4: Midazolam, 2 μM) were mixed for cocktail analysis. For P450 2C19, the substrate stock (Mephenytoin, 40 μM)and substrate mix were prepared separately for discrete analysis. The positive control for pan-P450 inhibition (miconazole) was included alongside each test compound in analysis.
(§2) A reaction mixture of 100 mM Kpi, pH 7.4, 0.1 mg/mL human liver microsomes (HLM) and Substrate Mix is prepared and aliquoted into a 96-deepwell block. Test compound and positive control (in duplicate) were then added such that the final concentration of test compound ranged from 0.1–30 μM. The plate was vortexed briefly and then preincubated at 37 °C while shaking for 15 min. The reaction was initiated with the addition of NADPH (1 mM final concentration). The incubation continued for 8 min and the reaction quenched by 2x volume of cold acetonitrile containing internal standard (50 nM carbamazepine). The plate was centrifuged for 10 min (4000 rcf, 4 °C) and the resulting supernatant diluted 1:1 with water for LC/MS/MS analysis. A 12 point standard curve of substrate metabolites over the range of 0.98 nM to 2000 nM.
(§3) Samples were analyzed via electrospray ionization (ESI) on an AB Sciex API-4000 (Foster City, CA) triple-quadrupole instrument that was coupled with Shimadzu LC-10AD pumps (Columbia, MD) and a Leap Technologies CTC PAL autosampler (Carrboro, NC). Analytes were separated by gradient elution using a Fortis C18 3.0 × 50 mm, 3 μm column (Fortis Technologies Ltd., Cheshire, UK) thermostated at 40 °C. […]
(§4) The IC50 values for each compound were obtained for the individual CYP enzymes by quantitating the inhibition of metabolite formation for each probe substrate. A 0 μM compound condition (or control) was set to 100% enzymatic activity and the effect of increasing test compound concentrations on enzymatic activity could then be calculated from the % of control activity. […]

2D6 = biological target: T2, 2D6 (Homo sapiens, UniProt P10635); test: inhibition of cytochrome P450 enzymes; assay type: in vitro ADME; conditions: human liver microsomes; read-out: CYP450 2D6 inhibition
T2 construct: 0.1 mg/mL human liver microsomes (HLM) and Substrate Mix; from tissue; host or cells: human liver microsomes
Protocol: as §1, §2, §3, §4

[2] = satellite PK for mouse AHL; assay type: in vivo
Source text: In parallel with the rat AHL study, we carried out a mouse AHL study to determine if the PK/PD relationship would remain intact across rodent species.

Wistar rats = test: qEEG telemetry recordings; assay type: in vivo; conditions: rat
Protocol: These effects were most pronounced between 30 and 120 min post treatment (Figure 11C).
Data are expressed as mean ± SEM and were analyzed by one- and two-way ANOVA followed by Dunnett’s Multiple Comparisons tests (*p < 0.05, **p < 0.01, ***p < 0.001 versus vehicle).
Wistar rats using a telemetry system (Data Sciences International DSI, USA).[20] Telemetric transmitters (F40-EET, Data Sciences International DSI, USA) were implanted intraperitoneally into male Wistar rats. EEG electrodes were placed supradurally above the hippocampus and two more electrodes were implanted into the neck muscle in order to measure the electromyography (EMG) signal required for differentiation between different vigilance states. Telemetric EEG recordings were performed during the light phase in the rats’ home cage environment. EEG activity was sampled at 500 Hz with a hardware filter cutoff of 50 Hz. Data were recorded continuously for 24 h, but only 1 h before compound treatment (baseline), the first 4 h after compound treatment plus an additional hour (+24 h time point) have been analyzed. Effects of treatment with 19d (1, 10 mg/kg, p.o., n = 14, applied 2 h after starting the recording) were determined on motor activity, body temperature, vigilance states and EEG power spectra using the EEG analysis software NeuroScore (Data Sciences International DSI, USA). The rats were tested in a crossover study design with a two-day washout period between two treatments.[20]

5-HT5a = biological target: T3, 5-HT5a (Homo sapiens, UniProt P47898); test: Eurofins radioligand binding panel; conditions: agonist radioligand
T3 construct: Eurofins
Source text: (§5) Table S1. Eurofins Lead Profiling Screen Data
(§6) This is a radioligand binding panel of 80 targets including GPCRs, ion channels, transporters and nuclear hormones. Biochemical assay results are presented as the percent inhibition of specific […]
(§7) Results showing an inhibition or stimulation higher than 50% are considered to represent significant effect and are highlighted

Cl- channel (GABA-gated) = test: Eurofins radioligand binding panel; conditions: antagonist radioligand
Source text: as §5, §6, §7

D2S = biological target: T4, D2S (Homo sapiens, UniProt P14416); test: Eurofins radioligand binding panel; conditions: antagonist radioligand
T4 construct: Eurofins (panel run as a service)
Source text: as §5, §6, §7

D4.4 = biological target: T5, D4.4 (Homo sapiens, UniProt P21917); test: Eurofins radioligand binding panel; conditions: antagonist radioligand
T5 construct: Eurofins (panel run as a service)
Source text: as §5, §6, §7

ETB = biological target: T6, ETB (Homo sapiens, UniProt P24530); test: Eurofins radioligand binding panel; conditions: agonist radioligand
T6 construct: Eurofins (panel run as a service)
Source text: as §5, §6, §7

M2 = biological target: T7, M2 (Homo sapiens, UniProt P08172); test: Eurofins radioligand binding panel; conditions: antagonist radioligand
T7 construct: Eurofins
Source text: as §5, §6, §7

MT1 (ML1A) = biological target: T8, MT1 (ML1A) (Homo sapiens, UniProt P48039); test: Eurofins radioligand binding panel; conditions: agonist radioligand
T8 construct: Eurofins
Source text: as §5, §6, §7

PAC1 (PACAP) = biological target: T9, PAC1 (PACAP) (Homo sapiens, UniProt P41586); test: Eurofins radioligand binding panel; conditions: agonist radioligand
T9 construct: Eurofins
Source text: as §5, §6, §7

T7 sequence (P08172 whole entry): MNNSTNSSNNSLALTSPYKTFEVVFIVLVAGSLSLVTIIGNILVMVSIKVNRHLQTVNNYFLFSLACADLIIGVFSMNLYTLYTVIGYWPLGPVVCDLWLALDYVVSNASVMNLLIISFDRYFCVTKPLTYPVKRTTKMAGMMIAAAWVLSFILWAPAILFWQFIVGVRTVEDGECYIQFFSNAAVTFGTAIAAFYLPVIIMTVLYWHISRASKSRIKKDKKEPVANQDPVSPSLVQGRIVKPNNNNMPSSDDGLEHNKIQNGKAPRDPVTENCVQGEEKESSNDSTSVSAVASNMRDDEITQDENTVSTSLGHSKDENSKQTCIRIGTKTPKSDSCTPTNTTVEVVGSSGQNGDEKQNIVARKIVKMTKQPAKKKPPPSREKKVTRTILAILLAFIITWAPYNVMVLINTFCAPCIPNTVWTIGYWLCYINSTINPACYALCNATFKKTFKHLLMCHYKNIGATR
T2 sequence (P10635 whole entry): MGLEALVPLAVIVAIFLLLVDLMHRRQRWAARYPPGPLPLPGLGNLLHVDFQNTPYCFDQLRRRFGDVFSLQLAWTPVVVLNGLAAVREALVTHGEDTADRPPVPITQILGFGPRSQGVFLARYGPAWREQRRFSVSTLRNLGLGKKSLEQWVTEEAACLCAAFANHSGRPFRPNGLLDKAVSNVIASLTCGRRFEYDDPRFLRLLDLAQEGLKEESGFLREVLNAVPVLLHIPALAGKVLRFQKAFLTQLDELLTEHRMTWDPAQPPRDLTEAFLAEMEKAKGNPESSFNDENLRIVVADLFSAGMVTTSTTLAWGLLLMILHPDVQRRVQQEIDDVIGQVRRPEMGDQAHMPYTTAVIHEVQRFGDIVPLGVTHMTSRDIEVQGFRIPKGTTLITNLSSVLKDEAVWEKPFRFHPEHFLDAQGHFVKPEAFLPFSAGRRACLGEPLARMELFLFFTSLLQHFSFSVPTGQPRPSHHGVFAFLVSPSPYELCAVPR
T5 sequence (P21917 whole entry): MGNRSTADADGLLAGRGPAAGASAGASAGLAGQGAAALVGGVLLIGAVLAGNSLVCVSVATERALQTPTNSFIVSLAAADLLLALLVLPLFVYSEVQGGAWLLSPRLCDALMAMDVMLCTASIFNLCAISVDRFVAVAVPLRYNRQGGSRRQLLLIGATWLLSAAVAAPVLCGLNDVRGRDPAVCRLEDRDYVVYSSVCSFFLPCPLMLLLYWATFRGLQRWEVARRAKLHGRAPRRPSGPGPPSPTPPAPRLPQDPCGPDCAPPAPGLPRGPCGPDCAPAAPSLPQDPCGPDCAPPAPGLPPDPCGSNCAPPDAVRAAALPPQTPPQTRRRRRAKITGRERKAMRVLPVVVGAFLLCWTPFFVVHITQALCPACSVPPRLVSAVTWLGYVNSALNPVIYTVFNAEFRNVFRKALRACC
T6 sequence (P24530 27-442): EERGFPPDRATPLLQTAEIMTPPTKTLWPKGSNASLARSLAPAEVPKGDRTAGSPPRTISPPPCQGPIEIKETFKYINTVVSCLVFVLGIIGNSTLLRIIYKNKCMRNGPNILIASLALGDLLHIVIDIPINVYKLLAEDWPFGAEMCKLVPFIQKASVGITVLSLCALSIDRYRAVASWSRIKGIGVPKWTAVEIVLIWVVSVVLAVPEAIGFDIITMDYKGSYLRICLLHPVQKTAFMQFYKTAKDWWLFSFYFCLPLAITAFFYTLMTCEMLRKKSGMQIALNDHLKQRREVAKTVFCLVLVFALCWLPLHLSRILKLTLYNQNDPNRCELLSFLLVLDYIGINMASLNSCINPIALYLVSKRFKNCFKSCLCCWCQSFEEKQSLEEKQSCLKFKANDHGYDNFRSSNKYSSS
T8 sequence (P48039 whole entry): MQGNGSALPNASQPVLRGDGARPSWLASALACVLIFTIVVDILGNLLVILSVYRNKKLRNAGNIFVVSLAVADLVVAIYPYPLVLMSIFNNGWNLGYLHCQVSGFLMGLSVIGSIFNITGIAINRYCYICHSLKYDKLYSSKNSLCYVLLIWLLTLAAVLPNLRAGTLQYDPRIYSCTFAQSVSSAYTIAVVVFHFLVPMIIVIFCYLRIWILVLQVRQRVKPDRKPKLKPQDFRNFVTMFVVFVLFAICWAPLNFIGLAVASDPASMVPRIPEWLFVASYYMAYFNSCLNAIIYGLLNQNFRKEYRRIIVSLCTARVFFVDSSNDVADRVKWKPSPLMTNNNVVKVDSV
T4 sequence (P14416 1-414 isoform P14416-2): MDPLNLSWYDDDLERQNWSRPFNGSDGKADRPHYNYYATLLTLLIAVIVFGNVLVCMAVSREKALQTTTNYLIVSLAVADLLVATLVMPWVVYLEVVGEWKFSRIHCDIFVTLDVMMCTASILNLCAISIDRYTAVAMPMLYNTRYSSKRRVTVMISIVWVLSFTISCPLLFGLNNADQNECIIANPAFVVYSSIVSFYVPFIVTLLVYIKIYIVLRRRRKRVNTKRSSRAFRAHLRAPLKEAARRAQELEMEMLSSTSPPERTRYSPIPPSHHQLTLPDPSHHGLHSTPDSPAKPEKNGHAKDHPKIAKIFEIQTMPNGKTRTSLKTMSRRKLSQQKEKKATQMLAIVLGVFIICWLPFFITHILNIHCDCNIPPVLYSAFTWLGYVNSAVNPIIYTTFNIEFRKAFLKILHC
T9 sequence (P41586 21-468): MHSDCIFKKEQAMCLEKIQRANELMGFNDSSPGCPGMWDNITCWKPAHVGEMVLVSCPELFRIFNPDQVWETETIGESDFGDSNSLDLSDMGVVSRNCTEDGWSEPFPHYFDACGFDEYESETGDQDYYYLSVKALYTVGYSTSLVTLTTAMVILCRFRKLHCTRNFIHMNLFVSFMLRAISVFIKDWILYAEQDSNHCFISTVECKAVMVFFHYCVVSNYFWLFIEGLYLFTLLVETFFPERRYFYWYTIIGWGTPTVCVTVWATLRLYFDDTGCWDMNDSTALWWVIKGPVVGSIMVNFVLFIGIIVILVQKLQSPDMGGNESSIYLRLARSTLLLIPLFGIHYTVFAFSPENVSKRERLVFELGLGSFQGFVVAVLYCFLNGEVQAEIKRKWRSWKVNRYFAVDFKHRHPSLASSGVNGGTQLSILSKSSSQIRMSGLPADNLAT
Sequence of hERG (Q12809 whole entry): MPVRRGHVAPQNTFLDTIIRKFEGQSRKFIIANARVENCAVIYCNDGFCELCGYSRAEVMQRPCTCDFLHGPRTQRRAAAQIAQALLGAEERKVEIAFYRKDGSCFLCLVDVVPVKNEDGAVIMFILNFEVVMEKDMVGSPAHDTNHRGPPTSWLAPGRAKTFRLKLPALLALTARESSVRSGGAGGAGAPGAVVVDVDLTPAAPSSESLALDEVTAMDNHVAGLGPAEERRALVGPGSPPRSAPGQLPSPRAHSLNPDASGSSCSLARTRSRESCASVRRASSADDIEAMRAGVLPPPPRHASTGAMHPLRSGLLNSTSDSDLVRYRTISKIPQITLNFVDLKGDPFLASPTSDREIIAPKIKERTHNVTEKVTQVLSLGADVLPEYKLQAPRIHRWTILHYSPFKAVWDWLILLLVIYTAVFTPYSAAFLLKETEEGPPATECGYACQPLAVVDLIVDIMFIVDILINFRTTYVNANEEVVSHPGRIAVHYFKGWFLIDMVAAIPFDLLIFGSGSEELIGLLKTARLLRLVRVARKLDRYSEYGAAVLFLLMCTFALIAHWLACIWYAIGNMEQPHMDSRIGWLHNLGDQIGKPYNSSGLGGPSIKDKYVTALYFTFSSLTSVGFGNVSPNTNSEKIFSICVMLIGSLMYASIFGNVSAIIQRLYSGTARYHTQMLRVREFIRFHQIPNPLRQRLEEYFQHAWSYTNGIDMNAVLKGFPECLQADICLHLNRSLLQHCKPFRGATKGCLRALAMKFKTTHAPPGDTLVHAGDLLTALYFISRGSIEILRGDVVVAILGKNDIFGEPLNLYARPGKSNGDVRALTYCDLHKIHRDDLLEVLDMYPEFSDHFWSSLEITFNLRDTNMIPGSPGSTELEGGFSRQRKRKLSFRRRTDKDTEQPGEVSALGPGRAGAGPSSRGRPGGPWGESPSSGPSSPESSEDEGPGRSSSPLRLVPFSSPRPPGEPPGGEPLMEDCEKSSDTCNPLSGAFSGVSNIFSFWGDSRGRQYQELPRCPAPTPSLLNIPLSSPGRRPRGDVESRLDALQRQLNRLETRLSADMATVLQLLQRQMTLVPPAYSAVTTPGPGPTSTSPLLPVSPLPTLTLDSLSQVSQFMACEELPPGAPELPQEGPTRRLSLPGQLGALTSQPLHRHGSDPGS
T1 sequence (P05177 whole entry): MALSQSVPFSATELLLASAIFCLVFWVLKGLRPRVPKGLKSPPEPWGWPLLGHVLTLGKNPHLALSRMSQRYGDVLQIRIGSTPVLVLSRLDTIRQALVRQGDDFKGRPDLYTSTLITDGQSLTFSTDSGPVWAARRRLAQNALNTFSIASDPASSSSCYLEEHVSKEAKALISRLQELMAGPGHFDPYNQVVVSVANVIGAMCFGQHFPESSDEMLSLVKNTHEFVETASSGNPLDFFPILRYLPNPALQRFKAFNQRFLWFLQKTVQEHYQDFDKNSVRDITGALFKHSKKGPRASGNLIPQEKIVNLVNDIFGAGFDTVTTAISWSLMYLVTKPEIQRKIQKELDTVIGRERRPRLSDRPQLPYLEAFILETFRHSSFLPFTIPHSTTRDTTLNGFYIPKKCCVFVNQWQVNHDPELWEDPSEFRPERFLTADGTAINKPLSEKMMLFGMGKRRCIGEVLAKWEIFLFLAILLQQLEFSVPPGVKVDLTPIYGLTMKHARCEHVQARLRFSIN

SMILES: Cn1nc(-c2ccnn2C)cc1CNC(=O)c1cc(-c2ccco2)ccc1Cl [Compound 19d, 2-Chloro-N-((1,2′-dimethyl-1H,2’H-[3,3′-bipyrazol]-5-yl)methyl)-5-(furan-2-yl)benzamide]
- IC50 (hERG): > 10 µM
- rat fubrain (brain homogenate binding): 0.034
- CLhep, dog [1]: 23 mL/min/kg
- IC50 (1A2): 17 µM
- IC50 (2D6): 28 µM
- free brain concentration ([2]; 10 mg/kg): 36 nM
- free brain concentration over the EC50 ([2]; 10 mg/kg): 1.3 fold
- free brain concentration ([2]; 30 mg/kg): 67 nM
- free brain concentration over the EC50 ([2]; 30 mg/kg): 2.5 fold
- body temperature (Wistar rats; 10 mg/kg p.o.): no measurable changes
- EEG power spectra (Wistar rats; 10 mg/kg p.o., 60 to 240 min post treatment): consistent reduction of delta, alpha and beta power
- motor activity (Wistar rats; 10 mg/kg p.o., maximum within first 120 min): significantly increased
- time spent in NREM and REM sleep (Wistar rats; higher dose (10 mg/kg p.o.)): reduction
- time spent in active and quiet wake states (Wistar rats; higher dose (10 mg/kg p.o.)): significant increase
- inhibition at 10 µM (5-HT5a): -2%
- % Inhibition at 10 µM (Cl- channel (GABA-gated)): 9%
- inhibition at 10 µM (D2S): 6%
- inhibition at 10 µM (D4.4): 22%
- inhibition at 10 µM (ETB): -27%
- inhibition at 10 µM (M2): 18%
- inhibition at 10 µM (MT1 (ML1A)): 17%
- inhibition at 10 µM (PAC1 (PACAP)): -2%
